In PubChem BioAssay AID588764 (Broad Institute, 2011):
Inconclusive results are not listed. The source made the active and inactive calls. How the calls were made is not given here.

Molecular target: Histone acetyltransferase RTT109 (Candida albicans (strain SC5314 / ATCC MYA-2876)) (UniProt Q5AAJ8)
Assay: C. albicans Rtt109 HAT inhibition curves – biochemical, cherry-picked hits, plate reader, dose response (AID 588764)
Details: Rtt109/Vps75 HAT activity; for activity change, negative = inhibition: at 19.5 µM (top of the series)

Chain of Histone acetyltransferase RTT109 (Candida albicans (strain SC5314 / ATCC MYA-2876)) (Q5AAJ8 whole entry, looked up): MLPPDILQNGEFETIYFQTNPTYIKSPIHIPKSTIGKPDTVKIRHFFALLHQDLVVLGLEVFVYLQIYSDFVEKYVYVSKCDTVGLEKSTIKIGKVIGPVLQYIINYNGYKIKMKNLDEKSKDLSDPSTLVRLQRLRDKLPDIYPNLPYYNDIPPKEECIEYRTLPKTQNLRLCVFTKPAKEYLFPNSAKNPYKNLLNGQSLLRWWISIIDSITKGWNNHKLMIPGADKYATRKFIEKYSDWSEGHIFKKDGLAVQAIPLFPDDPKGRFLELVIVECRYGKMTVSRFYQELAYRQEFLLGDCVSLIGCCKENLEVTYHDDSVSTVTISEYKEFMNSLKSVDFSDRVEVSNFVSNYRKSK

## COC(=O)c1cccc(Oc2cccc(Cl)n2)c1
  activity change, negative = inhibition: inactive

## COc1cccc(C(=O)NNC(=O)CCC(=O)O)c1
  activity change, negative = inhibition: inactive

## COC(=O)/C=C\C(=O)Nc1cccc([N+](=O)[O-])c1
  AC50: 5.62 µM

## COc1ccc(CC(NC(C)=O)C(=O)NC2CCN(c3nc(C)cc(C)c3C#N)CC2)cc1 (stereo not given)
  activity change, negative = inhibition: inactive

## CN(CC(=O)Nc1ccc(F)cc1)C(=O)COc1ccccc1Cc1ccccc1
  activity change, negative = inhibition: inactive

## CCc1sc(C(=O)Nc2cccc(C(C)=O)c2)cc1C
  activity change, negative = inhibition: inactive

## O=C(CCC(=O)OCC(=O)c1ccc([N+](=O)[O-])cc1)Nc1ccccc1Cl
  AC50: 8.57 µM

## CC(C)OC(=O)N(C)c1ccc(C(O)(C(F)(F)F)C(F)(F)F)cc1
  activity change, negative = inhibition: inactive

## C#CCOCCOCCOCCNc1nc(N2CCN(C(=O)C([C@@H](C)O)n3cc([C@@H](N)CCCCN)nn3)CC2)nc(N2CCN(C(=O)[C@H](CCCCN)n3cc(CN)nn3)CC2)n1 (stereo not given in full)
  activity change, negative = inhibition: inactive

## Cc1nn(C)cc1[C@@H]1C[C@H]2CN(Cc3cccc(Cl)c3)C(=O)[C@]23CCCN13
  activity change, negative = inhibition: inactive

## O=C(O)c1ccc(-c2ccc(/C=N/Nc3ccc([N+](=O)[O-])cc3)o2)cc1
  activity change, negative = inhibition: inactive

## COc1ccc(-n2nc3c(c2NC(=O)c2ccc(N4C(=O)CCC4=O)cc2)CSC3)cc1
  activity change, negative = inhibition: inactive

## COc1ccc(-[n+]2c(C)cc(/C=C3\Sc4ccccc4N3C)cc2C)cc1
  activity change, negative = inhibition: inactive

## CN(C)c1ccc(NC(=O)/C=C/c2ccccc2Cl)cc1
  activity change, negative = inhibition: inactive

## C#CCOCCOCCOCCNc1nc(N2CCN(C(=O)[C@H](CCCN=C(N)N)n3cc(C(N)[C@@H](C)CC)nn3)CC2)nc(N2CCN(C(=O)[C@H](CCCCN)n3cc([C@@H](N)CC(N)=O)nn3)CC2)n1 (stereo not given in full)
  activity change, negative = inhibition: inactive

## O=C(CSc1n[nH]c(-c2ccccc2Cl)n1)NC1CCCCC1
  activity change, negative = inhibition: inactive

## CCOC(=O)c1ccc(N2C(=O)c3n[nH]c(C)c3C2c2ccc(OC)cc2)cc1 (stereo not given)
  activity change, negative = inhibition: inactive

## O=C(NNc1ccccc1)C(=O)NNS(=O)(=O)c1ccc(CCCl)cc1
  activity change, negative = inhibition: inactive

## CN(C)S(=O)(=O)Oc1ccccc1C(=O)Nc1ccccc1Cl
  activity change, negative = inhibition: inactive

## Cc1ccc(S(=O)(=O)/N=C2\C=C(NS(=O)(=O)c3ccccc3)C(=O)c3ccccc32)cc1
  activity change, negative = inhibition: inactive

## CN(C)C(CNC(=O)c1ccc(C(=O)c2ccccc2)cc1)c1ccccc1 (stereo not given)
  activity change, negative = inhibition: inactive

## COC(=O)c1c(NC(=O)C2CC(C)=C(C)CC2C(=O)O)sc2c1CCCCC2 (stereo not given)
  activity change, negative = inhibition: inactive

## CCCCNS(=O)(=O)c1ccc(NC(=O)Cc2ccccc2[N+](=O)[O-])cc1
  activity change, negative = inhibition: inactive

## Cc1ccccc1C(=O)NCCNC(=O)c1ccco1
  activity change, negative = inhibition: inactive

## O=c1c2cc(F)ccc2sn1-c1ccccc1
  AC50: 1.81 µM

## Cc1nc(CC(C)C)cc(C(=O)N2CCCC(CNS(=O)(=O)c3cccs3)C2)n1 (stereo not given)
  activity change, negative = inhibition: inactive

## Cc1ccc2sc(NNC(=O)C3=COCCO3)nc2c1C
  activity change, negative = inhibition: inactive

## CCN1C=CC(=C2C(=O)c3ccccc3C2=O)C=C1
  activity change, negative = inhibition: inactive

## CCC(=O)Nc1cc(C)c(OC)c(C)c1
  activity change, negative = inhibition: inactive

## COc1cc(-c2nnc(SCC(=O)OC3CCCCC3)o2)cc(OC)c1OC
  activity change, negative = inhibition: inactive

## Fc1ccc(NC(=S)Nc2ccc(Br)cc2)cc1
  activity change, negative = inhibition: inactive

## COc1ccc(C2CC(=O)C(C=NCCO)=C(O)C2)cc1 (stereo not given)
  activity change, negative = inhibition: inactive

## COc1ccc(CCNC(=O)CN2C(=O)NC3(CCCCC3C)C2=O)cc1 (stereo not given)
  activity change, negative = inhibition: inactive

## CCc1nnc(NC(=O)CSc2nnc(C3CCCCC3)n2-c2cccc(Cl)c2)s1
  activity change, negative = inhibition: inactive

## CCOC(=O)c1c(NC(=O)C[n+]2ccc(Cc3ccccc3)cc2)sc(C)c1C
  activity change, negative = inhibition: inactive
